Results published in patent publication US12691121B2, “Treatment of pulmonary arterial hypertension” (IMPERIAL COLLEGE INNOVATIONS LIMITED, priority 2020, dated 2026).
pKd: −log10 of the molar value. Read-outs that look alike come from different tables or passages of the source.

How the values were obtained:
[1] = test system: human pulmonary microvascular endothelial cells (HPMEC); test: DMOG-induced apoptosis in HPMEC; assay type: cell-based
Source text: The effects of various TSPO ligands on HPMEC under DMOG (a permeable prolyl-4-hydroxylase inhibitor which upregulates hypoxia-inducible factor and causes apoptosis) stimulation were investigated.

TSPO = target: T1, TSPO (Rattus norvegicus, UniProt P16257); test: 11C-PBR28 PET imaging, ligand specificity tested by XBD-173 pre-treatment; assay type: in vivo; details: rats treated with XBD-173 prior to PET imaging
T1 construct: from tissue; host or cells: lungs and right ventricle of living control and monocrotaline-treated rats (in vivo PET)
Method: PET imaging was performed in healthy control and MCT 4 weeks rats (60 mg/kg subcutaneous injection). The uptake of TSPO PET tracer, ^11C-PBR28, was measured in the lungs and RV.

MCT rat [2] = test: MCT rat PH model: pulmonary arterial pressure, RVSP, RV hypertrophy, systemic blood pressure; assay type: in vivo
Method: Modulation of TSPO by XBD-173 was assessed in MCT rats. […] Heart and lung glucose metabolism were also assessed by FDG-PET imaging. […] This attenuation was dose-dependent manner. […] (data not shown).

MCT rat [3] = test: MCT rat PH model: pulmonary vascular remodelling and CD68+ macrophage infiltration (histology); assay type: in vivo
Method: Modulation of TSPO by XBD-173 was assessed in MCT rats. […] Heart and lung glucose metabolism were also assessed by FDG-PET imaging.

MCT rat [4] = test: MCT rat PH model: MRI of RV structure and function; assay type: in vivo
MCT rat [5] = test: MCT rat PH model: RV immunofluorescence (WGA cardiomyocyte size, CD31 micro-vessels); assay type: in vivo
Source text: Bar charts illustrating the quantitative data from immunofluorescence staining. ***p<0.001.
Immunofluorescence staining was used to examine the RV structural changes. The cardiomyocyte size was quantified by wheat germ agglutinin (WGA) and the number of micro-vessels by CD31 at RV insertion point.

SuHx rat = SuHx rat model: PAP, RV hypertrophy, systolic blood pressure; assay type: in vivo; details: SuHx rats, 2 mg/kg twice a day for two weeks
[6] = test system: Human pulmonary artery smooth muscle cells (PASMCs); test: PDGF- and hypoxia-stimulated proliferation of PASMCs; assay type: cell-based
HPAECs = test: TNF-α stimulated HPAEC activation: E-selectin ELISA and cytokine array; assay type: cell-based, human; details: 10 nM and 50 nM
Method: HPAECs were pre-treated with XBD173 (10 nM and 50 nM) for 24 hours before TNF-α (10 ng/ml) stimulation for 8 hours. At the end of the experiment, cell numbers were counted and cell culture supernatants collected (n=4 per group, control, TNF-α, TNF-α with XBD 10 nM and 50 nM treatments) for cytokine assay using the proteome profiler human cytokine array kit (R&D systems, ARY005B) and E-selectin ELISA assay. […] Further, XBD173 observably attenuated release of multiple cytokines and chemokines (CXCL-10, RANTES, IL-6, IL-21, IL-18, CXCL11, G-CSF and CXCL12) from HPAEC in response to TNF-α stimulation.

HPAEC [7] = test: ROS production in TNF-α stimulated HPAEC (CellROX Green); assay type: cell-based, human; details: 10 nM and 50 nM; P<0.001; levels similar to TNF-α untreated control
Method: (§1) Mitochondrial membrane potential was determined using 20 nM Tetramethylrhodamine, Ethyl Ester, Perchlorate (TMRE; Life technologies, T669). ROS production was detected using 5 uM CellROX Green (Life technologies, C10444). 1 ug/mL Hoechst 33342 (Life technologies, H1399) was added for nucleus staining. Images were obtained with a Zeiss Axio Observer inverted widefield microscope. […] In addition, XBD173 signifantly (P<0.001) increased the mitochondrial membrane potentials following TNF-α stimulation, with the mitochondrial membrane potentials with XBD173 treatment recovering to similar levels to those seen for the TNF-α untreated control.

HPAEC [8] = test: Mitochondrial membrane potential in TNF-α stimulated HPAEC (TMRE); assay type: cell-based, human; details: 10 nM and 50 nM; P<0.001; recovering to levels similar to TNF-α untreated control
Method: as §1

human TSPO [9] = target: human TSPO (Homo sapiens, UniProt P30536); details: cited from earlier work
human TSPO [10] = target: human TSPO (Homo sapiens, UniProt P30536, T147A); details: human subjects with high-affinity binding of their TSPO; read-out: mean Kd, high affinity binders; cited from earlier work
Chain of human TSPO (Homo sapiens, UniProt P30536, T147A) (P30536 2-169 T147A): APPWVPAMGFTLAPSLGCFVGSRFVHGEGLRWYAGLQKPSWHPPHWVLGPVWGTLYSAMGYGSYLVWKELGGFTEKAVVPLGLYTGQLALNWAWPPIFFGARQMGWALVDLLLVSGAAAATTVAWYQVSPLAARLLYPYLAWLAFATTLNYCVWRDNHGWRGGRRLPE

[11] = 2 mg/Kg once and twice a day, 2-4 weeks

CCC(C)N(C)C(=O)c1cc2ccccc2c(-c2ccccc2Cl)n1 (stereo not drawn) [PK95111]
DMOG-induced apoptotic effects in HPMECs ([1]; FIG. 12B, 3 nM, 30 nM and 300 nM): reversed

CCNC1=Nc2ccc(Cl)cc2C(C)(c2ccccc2)O1 (stereo not drawn) [Etifoxine]
DMOG-induced apoptotic effects in HPMECs ([1]; FIG. 12F, 10 uM): reversed

CCOC(=O)C1=C[C@]2(CC)CCCN3CCc4c(n1c1ccccc41)[C@@H]32 [Vinpocetine]
DMOG-induced apoptotic effects in HPMECs ([1]; FIG. 12C, 800 nM): reversed

CCN(Cc1ccccc1)C(=O)Cn1c(=O)n(C)c2cnc(-c3ccccc3)nc21 [XBD-173, N-Ethyl-7,8-dihydro-7-methyl-8-oxo-2-phenyl-N-(phenylmethyl)-9H-purine-9-acetamide]
PBR28 lung signals (11C-PBR28 PET) (TSPO): blocked | RV/body weight (RV/BW) (MCT rat [2]; [11]): attenuated | RVSP (RV catheterisation) (MCT rat [2]; [11]): attenuated | RVH (RV/LV+sp ratio, dissected heart tissue) (MCT rat [2]; 2 mg/Kg once and twice a day, 2-4 weeks, vs 57.30 untreated MCT): 40.30 | pulmonary arterial pressure (PAP) (MCT rat [2]; 2 mg/Kg once and twice a day, treatment from 2 weeks to 4 weeks, vs 45.37 untreated MCT): 27.23 mmHg | systemic blood pressure (MCT rat [2]; data not shown): no significant effect | inflammatory cell (CD68, macrophage) infiltration (MCT rat [3]; MCT rat lung): attenuated | pulmonary vascular remodelling (% of muscularised vessels) (MCT rat [3]; MCT rat, 2 mg/Kg once and twice a day, 2-4 weeks, vs 75.24 untreated MCT): 53.57% | RV cardiac index (RVCI) (MCT rat [4]): restoring | RV dilation (RV end diastolic volume index, RVEDVI) (MCT rat [4]): significantly reduced | RV ejection fraction (RVEF) (MCT rat [4]): restoring | RV hypertrophy as RV mass index (RVMI) (MCT rat [4]): reduced | RV hypertrophy as ventricular mass index (VMI) (MCT rat [4]): reduced | ventricular-vascular coupling (Ees/Ea) (MCT rat [4]): restoring | RV cardiomyocyte hypertrophy (myocyte size, WGA) (MCT rat [5]; MCT rat RV): attenuated | RV capillary density (CD31 micro-vessels) (MCT rat [5]; MCT rat RV insertion point): increased | RV hypertrophy (SuHx rat): significant decrease | pulmonary arterial pressure (PAP) (SuHx rat): significant decrease | systemic blood pressure (SuHx rat): no significant effect | PDGF-stimulated proliferation of PASMCs ([6]; PDGF stimulus): attenuated | hypoxia-stimulated proliferation of PASMCs ([6]; hypoxia stimulus (O2=2%)): attenuated | DMOG-induced apoptotic effects in HPMECs ([1]; Example 4, FIG. 11): reversed | DMOG-induced apoptotic effects in HPMECs ([1]; FIG. 12A, 10 nM, 50 nM and 100 nM): reversed | activation of HPAECs by TNF-α (E-selectin expression) (HPAECs; 24 hours pre-treatment, TNF-α 10 ng/ml 8 hours, P<0.05): reduced | CXCL11 release (HPAECs; TNF-α stimulation): attenuated | CXCL12 release (HPAECs; TNF-α stimulation): attenuated | CXCL-10 release (HPAECs; TNF-α stimulation): attenuated | G-CSF release (HPAECs; TNF-α stimulation): attenuated | IL-6 release (HPAECs; TNF-α stimulation): attenuated | IL-18 release (HPAECs; TNF-α stimulation): attenuated | IL-21 release (HPAECs; TNF-α stimulation): attenuated | RANTES release (HPAECs; TNF-α stimulation): attenuated | ROS production following TNF-α stimulation (HPAEC [7]): reduced | mitochondrial membrane potentials following TNF-α stimulation (HPAEC [8]): increased | pKd (human TSPO [9]; human subjects with both high- and low-affinity binding sites, read-out: mean Kd, mixed affinity binders): ~7.96 | pKd (human TSPO [9]; human subjects with low-affinity binding of their TSPO, read-out: mean Kd, low affinity binders): ~7.52 | pKd (human TSPO [10]): ~8.60

CN1C(=O)CN=C(c2ccc(Cl)cc2)c2cc(Cl)ccc21 [Ro 5-4864]
DMOG-induced apoptotic effects in HPMECs ([1]; FIG. 12E, 10 nM): reversed

CC(=O)N(Cc1ccccc1O[11CH3])c1cnccc1Oc1ccccc1 [PBR28]
DMOG-induced apoptotic effects in HPMECs ([1]; FIG. 12D, 5 nM): reversed
